Data as given in patent publication US8487108B2, “Piperidinyl carbamate intermediates for the synthesis of aspartic protease inhibitors” (Vitae Pharmaceuticals, Inc., priority 2005, dated 2013).

What was measured:
[1] = tested on: double transgenic rats engineered to express human renin and human angiotensinogen; test: Blood pressure by telemetry in double transgenic rats; type: in vivo, rat; details: dosage of 10 mg/kg, oral
Method: Double Transgenic Rats: The efficacy of the renin inhibitors can also evaluated in vivo in double transgenic rats engineered to express human renin and human angiotensinogen (Bohlender J, Fukamizu A, Lippoldt A, Nomura T, Dietz R, Menard J, Murakami K, Luft F C, Ganten D. High human renin hypertension in transgenic rats. Hypertension 1997, 29, 428-434).
(§1) Experiments were conducted in 6-week-old double transgenic rats (dTGRs). The model has been described in detail earlier. […] The human angiotensinogen construct made up the entire human angiotensinogen gene (5 exons and 4 introns), with 1.3 kB of 5′-flanking and 2.4 kB of 3′-flanking sequences. The rats were purchased from RCC Ltd (Füllinsdorf, Switzerland). Radio telemetry transmitters were surgically implanted at 4 weeks of age. The telemetry system provided 24-h recordings of systolic, mean, diastolic arterial pressure (SAP, MAP, DAP, respectively) and heart rate (HR). Beginning on day 42, animals were transferred to telemetry cages. A 24 h telemetry reading was obtained. Rats were then dosed orally on the following 4 consecutive days (days 43-46). The rats were monitored continuously and allowed free access to standard 0.3%-sodium rat chow and drinking water.

[2] = Plasma concentration in double transgenic rats after oral administration; type: in vivo, rat; details: 10 mg/kg oral
Method: FIG. 2 is a plot showing mean plasma concentrations of compound L-6a in transgenic rats over time following oral administration of 10 mg/kg of compound L-6a.
as §1

[3] = molecular target: T1, trypsin-activated recombinant human renin (Homo sapiens, UniProt P00797); test: Renin fluorescence assay (internally quenched peptide substrate); type: biochemical; details: compounds of Formula (XL)
T1 sequence (P00797 67-406): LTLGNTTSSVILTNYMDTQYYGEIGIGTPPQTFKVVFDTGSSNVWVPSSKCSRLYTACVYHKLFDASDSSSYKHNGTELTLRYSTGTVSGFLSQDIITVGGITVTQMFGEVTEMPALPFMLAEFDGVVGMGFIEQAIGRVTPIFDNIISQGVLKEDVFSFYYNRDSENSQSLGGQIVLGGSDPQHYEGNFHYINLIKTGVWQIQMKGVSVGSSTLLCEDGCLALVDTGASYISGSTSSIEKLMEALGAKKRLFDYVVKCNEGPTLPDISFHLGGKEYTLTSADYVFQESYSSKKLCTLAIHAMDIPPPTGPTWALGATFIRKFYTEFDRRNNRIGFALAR
Summary of the method: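 Cleavage of an angiotensinogen-derived DABCYL-quenched peptide by trypsin-activated recombinant human renin (0.2-2 nM final) in 50 mM BES, 150 mM NaCl, 0.25 mg/mL BSA, pH 7.0; compounds 10 μM to 1 nM final. Fluorescence (ex 340/em 495 nm) followed 60-360 min at rt; linear-slope rates give percent inhibition versus uninhibited control.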

[4] = molecular target: T2, plasma renin activity (PRA) in pooled mixed-gender human plasma (Homo sapiens, UniProt P00797); test: Plasma renin activity (PRA) assay in human plasma; type: biochemical; details: compounds of Formula (XL)
T2 construct: pooled mixed-gender human plasma stabilized with EDTA; from tissue; host or cells: pooled mixed-gender human plasma (EDTA)
T2 sequence (P00797 67-406): T1 sequence (P00797 67-406)
Method: Incubations mixtures contain in the final volume of 250 μL 95.5 mM N,N-bis(2-hydroxyethyl)-2-aminoethanesulfonic acid, pH 7.0, 8 mM EDTA, 0.1 mM neomycin sulfate, 1 mg/mL sodium azide, 1 mM phenylmethanesulfonyl fluoride, 2% DMSO and 87.3% of pooled mixed-gender human plasma stabilized with EDTA. For plasma batches with low PRA (less than 1 ng/ml/hr) ˜2 pM of recombinant human renin is added to achieve PRA of 3-4 ng/ml/hr. The cleavage of endogenous angiotensinogen in plasma is carried out at 37° C. for 90 min and the product angiotensin I is measured by competitive radioimmunoassay using DiaSorin PRA kit.

| availability in rat's plasma following oral administration [2] | metabolic stability [2] | oral bioavailability [2] | plasma concentration over 24 h period ([2]; over 24 h) | IC50 [3] [nM] | IC50 [4] [nM] | SMILES | effect in lowering blood pressures of double transgenic rats [1] |
| --- | --- | --- | --- | --- | --- | --- | --- |
| readily available in rat's plasma | excellent | excellent | remains relatively high |  |  | CNC[C@H](C[C@H]1CCCOC1)NC(=O)N1CCC[C@@H]([C@@H](OCCNC(=O)OC)c2cccc(Cl)c2)C1 [Example L-6a, methyl 2-((R)-(3-chlorophenyl)((R)-1-((S)-1-(methylamino)-3-((R)-tetrahydro-2H-pyran-3-yl)propan-2-ylcarbamoyl)-piperidin-3-yl)methoxy)-ethylcarbamate] | significant effect in lowering blood pressures |
|  |  |  |  | < 1 | < 10 | CN[C@H](CNC(=O)N1CCC[C@@H]([C@@H](OCCNC(=O)OC)c2cccc(Cl)c2)C1)C[C@H]1CCCOC1 [XL-7, methyl 2-((R)-(3-chlorophenyl)((R)-1-((S)-2-(methylamino)-3-((R)-tetrahydro-2H-pyran-3-yl)propylcarbamoyl)piperidin-3-yl)methoxy)ethylcarbamate] | significant effect in lowering blood pressures |
